Measurements taken from patent US6855710B2, “Substituted indolines with an inhibitory effect on various kinases and complexes of CDKs” (Boehringer Ingelheim Pharma KG, priority 1998, dated 2005).

| melting point | Structure (SMILES) |
| --- | --- |
| 273 to 276 °C | O=C1Nc2ccccc2/C1=C(/Nc1cccc(NC(=O)C(F)(F)F)c1)c1ccccc1 [Example 33, (Z)-3-[1-(3-trifluoroacetylamino-phenylamino)-1-phenyl-methylidene]-2-indolinone] |
| 239 °C | CC(C)C(=O)N(CCN1CCOCC1)c1ccc(N/C(=C2\C(=O)Nc3ccccc32)c2ccccc2)cc1 [Example 350, (Z)-3-{1-[4-(N-(2-morpholinoethyl)-N-isopropylcarbonyl-amino)-phenylamino]-1-phenyl-methylidene}-2-indolinone] |
| 197 to 198 °C | CN(C)Cc1ccc(N/C(=C2\C(=O)Nc3ccccc32)c2cccc(Cl)c2)cc1 [Example 223, (Z)-3-[1-(4-dimethylaminomethyl-phenylamino)-1-(3-chlorophenyl)-methylidene]-2-indolinone] |
| 268 to 270 °C | CNC(=O)CN(c1ccc(N/C(=C2\C(=O)Nc3ccccc32)c2ccccc2)cc1)S(C)(=O)=O [Example 192, (Z)-3-{1-[4-(N-methylaminocarbonylmethyl-N-methylsulphonyl-amino)-phenylamino]-1-phenyl-methylidene}-2-indolinone] |
| 307 °C | CC(=O)N(C)Cc1ccc(N/C(=C2\C(=O)Nc3ccc([N+](=O)[O-])cc32)c2ccccc2)cc1 [Example 122, (Z)-3-{1-[4-(N-acetyl-N-methyl-aminomethyl)-phenylamino]-1-phenyl-methylidene}-5-nitro-2-indolinone] |
| 351 °C | CNCc1ccc(N/C(=C2\C(=O)Nc3ccc([N+](=O)[O-])cc32)c2ccccc2)cc1.Cl |
| 253 to 255 °C | CN(C(=O)CN1CCCC1)c1ccc(N/C(=C2\C(=O)Nc3ccccc32)c2ccccc2)cc1 [Example 369, (Z)-3-{1-[4-(N-(pyrrolidin-1-ylmethylcarbonyl)-N-methyl-amino)-phenylamino]-1-phenyl-methylidene}-2-indolinone] |
| 117 to 119 °C | CN(C(=O)CNCCN1CCOCC1)c1ccc(N/C(=C2\C(=O)Nc3ccccc32)c2ccccc2)cc1 [Example 373, (Z)-3-{1-[4-(N-(2-morpholinoethylaminomethylcarbonyl)-N-methyl-amino)-phenylamino]-1-phenyl-methylidene}-2-indolinone] |
| 182 to 184 °C | COCc1cccc(N/C(=C2\C(=O)Nc3ccccc32)c2ccccc2)c1 [Example 5, (Z)-3-[1-(3-methoxymethyl-phenylamino)-1-phenyl-methylidene]-2-indolinone] |
| 158 to 160 °C | CN1C(=O)/C(=C(\Nc2cccc(C#N)c2)c2ccccc2)c2ccccc21 [Example 73, (Z)-1-methyl-3-[1-(3-cyanophenylamino)-1-phenyl-methylidene]-2-indolinone] |
| 227 to 229 °C | CN(C)CCNc1ccc(N/C(=C2\C(=O)Nc3ccc([N+](=O)[O-])cc32)c2ccccc2)cc1 [Example 326, (Z)-3-{1-[4-(2-dimethylamino-ethylamino)-phenylamino]-1-phenyl-methylidene}-5-nitro-2-indolinone] |
| 230 to 235 °C | C[C@H](N)c1ccc(N/C(=C2\C(=O)Nc3ccc([N+](=O)[O-])cc32)c2ccccc2)cc1.Cl |
| 268 to 270 °C | O=C(O)Cc1cccc(N/C(=C2\C(=O)Nc3ccccc32)c2ccccc2)c1 [Example 12, (Z)-3-[1-(3-carboxymethyl-phenylamino)-1-phenyl-methylidene]-2-indolinone] |
| 214 to 216 °C | CN(C)CCNC(=O)CN(c1ccc(N/C(=C2\C(=O)Nc3ccccc32)c2ccccc2)cc1)S(C)(=O)=O [Example 194, (Z)-3-{1-[4-(N-(2-dimethylamino-ethylaminocarbonylmethyl)-N-methylsulphonyl-amino)-phenylamino]-1-phenyl-methylidene}-2-indolinone] |
| 121 to 123 °C | CCCCS(=O)(=O)N(CC(=O)N(C)C)c1ccc(N/C(=C2\C(=O)Nc3ccccc32)c2ccccc2)cc1 [Example 306, (Z)-3-{1-[4-(N-(dimethylaminocarbonylmethyl)-N-butylsulphonyl-amino)-phenylamino]-1-phenyl-methylidene}-2-indolinone] |
| 299 to 301 °C | CS(=O)(=O)Nc1ccc(N/C(=C2\C(=O)Nc3ccccc32)c2ccccc2)cc1 [Example 185, (Z)-3-[1-(4-methylsulphonylamino-phenylamino)-1-phenyl-methylidene]-2-indolinone] |
| 248 to 250 °C | CNC(=N)c1cccc(N/C(=C2\C(=O)Nc3ccccc32)c2ccccc2)c1 [Example 65, (Z)-3-{1-[3-(N-methylcarbamimidoyl)-phenylamino]-1-phenyl-methylidene}-2-indolinone] |

Second part, the compound before the results:

| Structure (SMILES) | melting point |
| --- | --- |
| CC(=O)N1CCN(Cc2ccc(N/C(=C3\C(=O)Nc4ccc([N+](=O)[O-])cc43)c3ccccc3)cc2)CC1 [Example 246, (Z)-3-{1-[4-(4-acetylpiperazin-1-ylmethyl)-phenylamino]-1-phenyl-methylidene}-5-nitro-2-indolinone] | 275 to 277 °C |
| CC(C)(C)OC(=O)NCCc1ccc(N/C(=C2\C(=O)Nc3ccc([N+](=O)[O-])cc32)c2ccccc2)cc1 [Example 127, (Z)-3-{1-[4-(2-tert.butoxycarbonylamino-ethyl)-phenylamino]-1-phenyl-methylidene}-5-nitro-2-indolinone] | 213 to 214 °C |
| COC(=O)c1ccc(/C(Nc2ccc(CN3CCCCC3)cc2)=C2/C(=O)Nc3ccc([N+](=O)[O-])cc32)cc1 [Example 444, (Z)-3-[1-(4-piperidinomethyl-phenylamino)-1-(4-methoxycarbonyl-phenyl)-methylidene]-5-nitro-2-indolinone] | 178 to 183 °C |
| O=CN(CCN1CCOCC1)c1ccc(N/C(=C2\C(=O)Nc3ccc([N+](=O)[O-])cc32)c2ccccc2)cc1 [Example 333, (Z)-3-{1-[4-(N-(2-morpholinoethyl)-N-formyl-amino)-phenylamino]-1-phenyl-methylidene}-5-nitro-2-indolinone] | 207 °C |
| CC(=O)NCC(=O)N(C)c1ccc(N/C(=C2\C(=O)Nc3ccc([N+](=O)[O-])cc32)c2ccccc2)cc1 [Example 140, (Z)-3-{1-[4-(N-acetylaminomethylcarbonyl-N-methyl-amino)phenylamino]-1-phenyl-methylidene}-5-nitro-2-indolinone] | 277 to 278 °C |
| CN(C(=O)CN1CCN(Cc2ccccc2)CC1)c1ccc(N/C(=C2\C(=O)Nc3ccccc32)c2ccccc2)cc1 [Example 53, (Z)-3-{1-[4-(N-(4-benzylpiperazinomethylcarbonyl)-N-methyl-amino)-phenylamino]-1-phenyl-methylidene}-2-indolinone] | 157 to 158 °C |
| Cc1cccc(/C(Nc2ccc(CN(C)C)cc2)=C2/C(=O)Nc3ccc([N+](=O)[O-])cc32)c1 [Example 214, (Z)-3-[1-(4-dimethylaminomethyl-phenylamino)-1-(m-tolyl)-methylidene]-5-nitro-2-indolinone] | 210 °C |
| CC(=O)NCc1ccc(/C(Nc2cccc(N(CC(=O)N(C)C)S(C)(=O)=O)c2)=C2/C(=O)Nc3ccccc32)cc1 [Example 421, (Z)-3-{1-[3-(N-dimethylaminocarbonylmethyl-N-methylsulphonyl-amino)-phenylamino]-1-(4-acetylaminomethyl-phenyl)-methylidene}-2-indolinone] | 194 °C |
| CC(C)(C)OC(=O)NC(Cc1ccc(N/C(=C2\C(=O)Nc3ccc([N+](=O)[O-])cc32)c2ccccc2)cc1)C(=O)O (stereo not shown) [Example 226, (Z)-3-{1-[4-(2-tert.butoxycarbonylamino-2-carboxy-ethyl)-phenylamino]-1-phenyl-methylidene}-5-nitro-2-indolinone] | 235 °C (dec.) |
| O=C1Nc2ccc([N+](=O)[O-])cc2/C1=C(/Nc1ccc(CN2CCC(C(=O)O)CC2)cc1)c1ccccc1 [Example 177, (Z)-3-{1-[4-(4-carboxypiperidinomethyl)-phenylamino]-1-phenyl-methylidene}-5-nitro-2-indolinone] | 207 °C |
| CCCCNCc1ccc(N/C(=C2\C(=O)Nc3ccc([N+](=O)[O-])cc32)c2ccccc2)cc1 [Example 166, (Z)-3-[1-(4-butylaminomethyl-phenylamino)-1-phenyl-methylidene]-5-nitro-2-indolinone] | 183 °C |
| COCCNCc1ccc(N/C(=C2\C(=O)Nc3ccc([N+](=O)[O-])cc32)c2ccccc2)cc1 [Example 174, (Z)-3-{1-[4-(2-methoxyethylaminomethyl)-phenylamino]-1-phenyl-methylidene}-5-nitro-2-indolinone] | 184 to 185 °C |
| O=C(O)CNS(=O)(=O)c1ccc(N/C(=C2\C(=O)Nc3ccc([N+](=O)[O-])cc32)c2ccccc2)cc1 [Example 411, (Z)-3-{1-[4-(carboxymethylaminosulphonyl)-phenylamino]-1-phenyl-methylidene}-5-nitro-2-indolinone] | 177 to 180 °C (dec.) |
| CN(CC(=O)O)S(=O)(=O)c1ccc(N/C(=C2\C(=O)Nc3ccc([N+](=O)[O-])cc32)c2ccccc2)cc1 [Example 414, (Z)-3-{1-[4-(N-carboxymethyl-N-methyl-aminosulphonyl)-phenylamino]-1-phenyl-methylidene}-5-nitro-2-indolinone] | 259 to 260 °C |
| CC(C)(C)OC(=O)NCc1ccc(N/C(=C2\C(=O)Nc3ccc([N+](=O)[O-])cc32)c2ccc(CN)cc2)cc1 [Example 148, (Z)-3-[1-(4-tert.butoxycarbonylaminomethyl-phenylamino)-1-(4-aminomethyl-phenyl)-methylidene]-5-nitro-2-indolinone] | 220 to 223 °C |
| CC(=O)NCc1ccc(/C(Nc2cccc(N(CC(N)=O)S(C)(=O)=O)c2)=C2/C(=O)Nc3ccccc32)cc1 [Example 417, (Z)-3-{1-[3-(N-aminocarbonylmethyl-N-methylsulphonyl-amino)-phenylamino]-1-(4-acetylaminomethyl-phenyl)-methylidene}-2-indolinone] | 215 °C |
| CN(C(=O)CN1CCOCC1)c1ccc(N/C(=C2\C(=O)Nc3ccc([N+](=O)[O-])cc32)c2ccccc2)cc1 [Example 102, (Z)-3-{1-[4-(N-morpholinomethylcarbonyl-N-methyl-amino)-phenylamino]-1-phenyl-methylidene}-5-nitro-2-indolinone] | 293 to 295 °C |
